Columns and labels:
[1] = Cmax in Sprague-Dawley rat at 10 mg/kg, po by LC-MS/MS method; assay type: ADME, organism-based; parameters: dose 10 mg/kg, route oral; conditions: in vivo
[2] = target: Atypical kinase COQ8A, mitochondrial (Homo sapiens) (UniProt Q8NI60); experiment: Inhibition of wild-type human […] ADCK3 (M280 to Q647 residues) expressed in bacterial expression system assessed as residual activity at 1 uM by Kinomescan method relative to control
[3] = target: Mitogen-activated protein kinase kinase kinase 5 (Homo sapiens) (UniProt Q99683); experiment: Inhibition of wild-type human partial length ASK1 (E648 to S964 residues) expressed in bacterial expression system assessed as residual activity at 1 uM by Kinomescan method relative to control
[4] = target: Calcium/calmodulin-dependent protein kinase type 1 (Homo sapiens) (UniProt Q14012); experiment: Inhibition of wild-type human full length CAMK1 (M1 to L370 residues) expressed in bacterial expression system assessed as residual activity at 1 uM by Kinomescan method relative to control
[5] = target: Cyclin-dependent kinase 7 (Homo sapiens) (UniProt P50613); experiment: Inhibition of wild-type human full length CDK7 (M1 to L344 residues) expressed in mammalian expression system assessed as residual activity at 1 uM by Kinomescan method relative to control
[6] = target: Serine/threonine-protein kinase Chk2 (Homo sapiens) (UniProt O96017); experiment: Inhibition of wild-type human partial length CHEK2 (S253 to E574 residues) expressed in bacterial expression system assessed as residual activity at 1 uM by Kinomescan method relative to control
[7] = target: Macrophage colony-stimulating factor 1 receptor (Homo sapiens) (UniProt P07333); experiment: Inhibition of wild-type human partial length CSF1R (I564 to S939 residues) expressed in bacterial expression system assessed as residual activity at 1 uM by Kinomescan method relative to control
[8] = target: Casein kinase I isoform alpha-like (Homo sapiens) (UniProt Q8N752); experiment: Inhibition of wild-type human full length CSNK1A1L (M1 to N337 residues) expressed in bacterial expression system assessed as residual activity at 1 uM by Kinomescan method relative to control
[9] = target: Megakaryocyte-associated tyrosine-protein kinase (Homo sapiens) (UniProt P42679); experiment: Inhibition of wild-type human full length CTK (M43 to P508 residues) expressed in mammalian expression system assessed as residual activity at 1 uM by Kinomescan method relative to control
[10] = tested on: Epidermal growth factor receptor (Homo sapiens), P00533 [T790M]; experiment: Inhibition of human partial length EGFR T790M mutant (R669 to G1022 residues) expressed in mammalian expression system assessed as residual activity at 1 uM by Kinomescan method relative to control
[11] = target: Ephrin type-B receptor 3 (Homo sapiens) (UniProt P54753); experiment: Inhibition of wild-type human partial length EPHB3 (Q599 to T928 residues) expressed in bacterial expression system assessed as residual activity at 1 uM by Kinomescan method relative to control
[12] = tested on: Receptor-type tyrosine-protein kinase FLT3 (Homo sapiens), P36888 [D835V]; experiment: Inhibition of human partial length FLT3 D835V mutant (V592 to Y969 residues) expressed in bacterial expression system assessed as residual activity at 1 uM by Kinomescan method relative to control
[13] = target: Homeodomain-interacting protein kinase 2 (Homo sapiens) (UniProt Q9H2X6); experiment: Inhibition of wild-type human partial length HIPK2 (M153 to S564 residues) expressed in mammalian expression system assessed as residual activity at 1 uM by Kinomescan method relative to control
[14] = target: Mitogen-activated protein kinase 10 (Homo sapiens) (UniProt P53779); experiment: Inhibition of wild-type human partial length JNK3 (V28 to Q422 residues) expressed in mammalian expression system assessed as residual activity at 1 uM by Kinomescan method relative to control
[15] = target: Serine/threonine-protein kinase LATS1 (Homo sapiens) (UniProt O95835); experiment: Inhibition of wild-type human partial length LATS1 (Q678 to V1130 residues) expressed in bacterial expression system assessed as residual activity at 1 uM by Kinomescan method relative to control
[16] = target: Mitogen-activated protein kinase kinase kinase 3 (Homo sapiens) (UniProt Q99759); experiment: Inhibition of wild-type human partial length MAP3K3 (E320 to Y626 residues) expressed in mammalian expression system assessed as residual activity at 1 uM by Kinomescan method relative to control
[17] = target: Serine/threonine-protein kinase 3 (Homo sapiens) (UniProt Q13188); experiment: Inhibition of wild-type human partial length MST2 (D17 to E318 residues) expressed in bacterial expression system assessed as residual activity at 1 uM by Kinomescan method relative to control
[18] = target: Serine/threonine-protein kinase 26 (Homo sapiens) (UniProt Q9P289); experiment: Inhibition of wild-type human full length MST4 (M1 to P416 residues) expressed in mammalian expression system assessed as residual activity at 1 uM by Kinomescan method relative to control
[19] = target: Mitogen-activated protein kinase 12 (Homo sapiens) (UniProt P53778); experiment: Inhibition of wild-type human full length p38-gamma (M1 to L367 residues) expressed in mammalian expression system assessed as residual activity at 1 uM by Kinomescan method relative to control
[20] = target: Serine/threonine-protein kinase PAK 2 (Homo sapiens) (UniProt Q13177); experiment: Inhibition of wild-type human partial length PAK2 (P151 to R525 residues) expressed in bacterial expression system assessed as residual activity at 1 uM by Kinomescan method relative to control
[21] = target: Phosphatidylinositol 4-phosphate 3-kinase C2 domain-containing subunit beta (Homo sapiens) (UniProt O00750); experiment: Inhibition of wild-type human partial length PIK3C2B (M1 to L1634 residues) expressed in mammalian expression system assessed as residual activity at 1 uM by Kinomescan method relative to control
[22] = target: Phosphatidylinositol 4,5-bisphosphate 3-kinase catalytic subunit delta isoform (Homo sapiens) (UniProt O00329); experiment: Inhibition of wild-type human partial length PIK3CD (R108 to Q1044 residues) expressed in mammalian expression system assessed as residual activity at 1 uM by Kinomescan method relative to control
[23] = target: Phosphatidylinositol 5-phosphate 4-kinase type-2 beta (Homo sapiens) (UniProt P78356); experiment: Inhibition of wild-type human full length PIP5K2B (M1 to T416 residues) expressed in bacterial expression system assessed as residual activity at 1 uM by Kinomescan method relative to control
[24] = target: Ribosomal protein S6 kinase alpha-4 (Homo sapiens) (UniProt O75676); experiment: Inhibition of wild-type human partial length N-terminal RPS6KA4 kinase domain 1 expressed in bacterial expression system assessed as residual activity at 1 uM by Kinomescan method relative to control
[25] = target: Ribosomal protein S6 kinase alpha-2 (Homo sapiens) (UniProt Q15349); experiment: Inhibition of wild-type human partial length N-terminal RSK3 kinase domain 1 (M1 to Q385 residues) expressed in bacterial expression system assessed as residual activity at 1 uM by Kinomescan method relative to control

Calcium/calmodulin-dependent protein kinase type 1 (Homo sapiens), sequence (Q14012 whole entry, looked up, the tested form may be a part): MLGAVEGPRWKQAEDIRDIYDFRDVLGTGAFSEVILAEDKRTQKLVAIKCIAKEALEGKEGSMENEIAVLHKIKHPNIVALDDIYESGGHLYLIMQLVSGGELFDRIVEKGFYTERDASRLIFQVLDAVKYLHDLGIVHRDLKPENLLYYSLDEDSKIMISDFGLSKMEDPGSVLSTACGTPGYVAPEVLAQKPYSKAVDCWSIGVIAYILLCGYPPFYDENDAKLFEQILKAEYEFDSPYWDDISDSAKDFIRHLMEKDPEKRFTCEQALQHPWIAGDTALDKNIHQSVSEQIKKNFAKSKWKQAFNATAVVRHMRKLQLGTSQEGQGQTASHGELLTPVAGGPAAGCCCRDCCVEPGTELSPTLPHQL
Ephrin type-B receptor 3 (Homo sapiens), sequence (P54753 whole entry, the tested form may be a part): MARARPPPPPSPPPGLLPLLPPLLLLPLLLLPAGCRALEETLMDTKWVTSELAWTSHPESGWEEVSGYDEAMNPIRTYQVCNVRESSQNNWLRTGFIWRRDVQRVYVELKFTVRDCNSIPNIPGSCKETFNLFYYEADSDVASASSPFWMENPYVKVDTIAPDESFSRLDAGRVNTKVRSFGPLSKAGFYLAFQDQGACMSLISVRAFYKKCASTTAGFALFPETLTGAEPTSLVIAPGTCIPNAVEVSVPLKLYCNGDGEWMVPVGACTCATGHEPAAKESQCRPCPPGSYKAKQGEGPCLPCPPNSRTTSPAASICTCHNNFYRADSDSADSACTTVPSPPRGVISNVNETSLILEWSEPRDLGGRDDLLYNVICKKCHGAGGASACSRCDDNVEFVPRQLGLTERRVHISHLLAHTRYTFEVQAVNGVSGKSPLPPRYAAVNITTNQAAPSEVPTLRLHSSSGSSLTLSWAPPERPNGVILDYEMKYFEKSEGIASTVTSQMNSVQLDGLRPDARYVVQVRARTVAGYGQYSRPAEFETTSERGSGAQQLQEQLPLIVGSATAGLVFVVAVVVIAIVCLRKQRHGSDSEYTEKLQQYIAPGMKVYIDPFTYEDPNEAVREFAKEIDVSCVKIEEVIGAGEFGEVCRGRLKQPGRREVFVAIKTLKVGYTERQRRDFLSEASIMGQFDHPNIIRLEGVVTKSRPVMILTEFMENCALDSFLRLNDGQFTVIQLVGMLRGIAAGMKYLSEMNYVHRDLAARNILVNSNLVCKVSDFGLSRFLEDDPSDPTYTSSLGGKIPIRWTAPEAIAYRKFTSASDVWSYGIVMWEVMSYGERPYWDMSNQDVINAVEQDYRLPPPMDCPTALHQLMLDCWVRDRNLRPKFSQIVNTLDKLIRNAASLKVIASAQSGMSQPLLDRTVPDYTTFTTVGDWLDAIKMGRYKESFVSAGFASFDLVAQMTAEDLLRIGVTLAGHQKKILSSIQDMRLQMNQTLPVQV
Serine/threonine-protein kinase PAK 2 (Homo sapiens), sequence (Q13177 whole entry, the tested form may be a part): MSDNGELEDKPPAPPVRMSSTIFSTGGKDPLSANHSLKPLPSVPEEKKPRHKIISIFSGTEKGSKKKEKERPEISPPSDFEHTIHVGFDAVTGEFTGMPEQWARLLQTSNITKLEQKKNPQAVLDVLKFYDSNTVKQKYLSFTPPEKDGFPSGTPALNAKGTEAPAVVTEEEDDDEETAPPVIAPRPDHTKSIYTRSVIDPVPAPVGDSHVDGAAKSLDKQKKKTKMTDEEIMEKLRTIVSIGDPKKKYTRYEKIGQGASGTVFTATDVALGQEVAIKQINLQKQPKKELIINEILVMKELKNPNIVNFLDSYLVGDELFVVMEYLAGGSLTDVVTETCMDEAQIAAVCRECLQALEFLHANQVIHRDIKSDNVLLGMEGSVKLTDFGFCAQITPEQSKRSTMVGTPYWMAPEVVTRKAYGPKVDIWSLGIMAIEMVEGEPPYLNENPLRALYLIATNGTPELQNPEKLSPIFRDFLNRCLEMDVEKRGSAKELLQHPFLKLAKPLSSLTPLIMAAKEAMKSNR
Serine/threonine-protein kinase 26 (Homo sapiens), sequence (Q9P289 2-416 limits assumed): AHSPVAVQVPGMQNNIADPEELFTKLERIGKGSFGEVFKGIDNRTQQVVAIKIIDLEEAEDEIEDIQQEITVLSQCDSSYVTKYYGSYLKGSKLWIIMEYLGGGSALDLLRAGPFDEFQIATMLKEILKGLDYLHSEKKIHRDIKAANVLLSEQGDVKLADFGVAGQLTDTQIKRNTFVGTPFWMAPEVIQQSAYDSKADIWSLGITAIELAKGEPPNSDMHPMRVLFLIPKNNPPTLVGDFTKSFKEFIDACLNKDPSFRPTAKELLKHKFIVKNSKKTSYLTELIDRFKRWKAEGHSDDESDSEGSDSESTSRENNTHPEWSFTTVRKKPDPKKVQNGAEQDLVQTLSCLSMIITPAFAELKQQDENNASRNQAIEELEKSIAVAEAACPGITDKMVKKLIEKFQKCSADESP
Serine/threonine-protein kinase LATS1 (Homo sapiens), sequence (O95835 whole entry, the tested form may be a part): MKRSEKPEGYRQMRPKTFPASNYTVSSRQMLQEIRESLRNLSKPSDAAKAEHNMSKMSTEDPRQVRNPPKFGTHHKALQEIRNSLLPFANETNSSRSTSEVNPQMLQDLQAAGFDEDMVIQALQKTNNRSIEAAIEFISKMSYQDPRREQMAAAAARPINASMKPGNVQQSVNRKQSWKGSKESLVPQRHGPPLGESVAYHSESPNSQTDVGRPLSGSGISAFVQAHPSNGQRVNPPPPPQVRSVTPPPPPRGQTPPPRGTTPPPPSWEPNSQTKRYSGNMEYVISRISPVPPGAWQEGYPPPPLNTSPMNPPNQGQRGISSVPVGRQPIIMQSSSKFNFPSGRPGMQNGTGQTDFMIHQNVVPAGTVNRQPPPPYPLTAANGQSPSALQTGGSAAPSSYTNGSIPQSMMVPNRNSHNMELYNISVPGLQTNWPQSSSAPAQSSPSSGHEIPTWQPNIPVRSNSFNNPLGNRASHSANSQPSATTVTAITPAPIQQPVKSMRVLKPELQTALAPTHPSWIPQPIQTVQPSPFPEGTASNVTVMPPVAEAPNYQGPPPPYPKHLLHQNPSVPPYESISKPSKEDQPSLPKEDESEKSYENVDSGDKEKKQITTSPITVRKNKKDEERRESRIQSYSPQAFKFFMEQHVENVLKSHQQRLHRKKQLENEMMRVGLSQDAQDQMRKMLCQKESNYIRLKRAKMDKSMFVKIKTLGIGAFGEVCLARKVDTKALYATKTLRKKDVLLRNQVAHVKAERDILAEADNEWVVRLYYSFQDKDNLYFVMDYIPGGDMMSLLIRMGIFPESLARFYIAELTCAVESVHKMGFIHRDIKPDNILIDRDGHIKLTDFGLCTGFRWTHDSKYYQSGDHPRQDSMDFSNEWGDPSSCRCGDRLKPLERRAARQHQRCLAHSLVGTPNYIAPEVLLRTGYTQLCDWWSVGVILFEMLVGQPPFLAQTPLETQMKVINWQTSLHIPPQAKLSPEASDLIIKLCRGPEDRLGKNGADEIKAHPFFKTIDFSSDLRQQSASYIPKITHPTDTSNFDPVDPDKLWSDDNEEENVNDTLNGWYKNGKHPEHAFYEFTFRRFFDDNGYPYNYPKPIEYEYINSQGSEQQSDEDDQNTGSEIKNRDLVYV
Serine/threonine-protein kinase Chk2 (Homo sapiens), sequence (O96017 whole entry, the tested form may be a part): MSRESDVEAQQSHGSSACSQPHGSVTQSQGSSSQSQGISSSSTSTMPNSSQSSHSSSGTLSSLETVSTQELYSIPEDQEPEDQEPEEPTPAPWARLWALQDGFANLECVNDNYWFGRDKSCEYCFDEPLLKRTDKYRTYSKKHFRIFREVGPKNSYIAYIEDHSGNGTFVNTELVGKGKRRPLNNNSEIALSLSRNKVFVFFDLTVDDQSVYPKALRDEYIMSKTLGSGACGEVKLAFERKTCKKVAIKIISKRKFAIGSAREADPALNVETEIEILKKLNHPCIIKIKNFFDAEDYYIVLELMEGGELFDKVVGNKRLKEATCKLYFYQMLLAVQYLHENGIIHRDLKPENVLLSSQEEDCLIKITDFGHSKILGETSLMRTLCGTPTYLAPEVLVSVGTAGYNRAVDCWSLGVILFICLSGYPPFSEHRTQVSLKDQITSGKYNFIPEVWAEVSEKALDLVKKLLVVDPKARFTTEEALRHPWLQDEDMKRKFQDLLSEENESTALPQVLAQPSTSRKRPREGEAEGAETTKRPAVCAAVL
Mitogen-activated protein kinase 12 (Homo sapiens), sequence (P53778 whole entry, the tested form may be a part): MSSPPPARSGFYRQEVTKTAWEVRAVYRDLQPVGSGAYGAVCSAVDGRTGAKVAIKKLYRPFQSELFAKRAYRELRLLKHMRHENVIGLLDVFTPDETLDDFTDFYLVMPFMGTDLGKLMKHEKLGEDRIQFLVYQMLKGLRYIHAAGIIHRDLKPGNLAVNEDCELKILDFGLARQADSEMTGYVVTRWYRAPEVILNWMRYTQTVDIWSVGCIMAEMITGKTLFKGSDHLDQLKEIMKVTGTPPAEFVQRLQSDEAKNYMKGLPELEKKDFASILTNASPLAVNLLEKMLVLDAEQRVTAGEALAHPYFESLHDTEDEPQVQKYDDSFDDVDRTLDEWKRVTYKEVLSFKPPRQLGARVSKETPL
Serine/threonine-protein kinase 3 (Homo sapiens), sequence (Q13188 whole entry, the tested form may be a part): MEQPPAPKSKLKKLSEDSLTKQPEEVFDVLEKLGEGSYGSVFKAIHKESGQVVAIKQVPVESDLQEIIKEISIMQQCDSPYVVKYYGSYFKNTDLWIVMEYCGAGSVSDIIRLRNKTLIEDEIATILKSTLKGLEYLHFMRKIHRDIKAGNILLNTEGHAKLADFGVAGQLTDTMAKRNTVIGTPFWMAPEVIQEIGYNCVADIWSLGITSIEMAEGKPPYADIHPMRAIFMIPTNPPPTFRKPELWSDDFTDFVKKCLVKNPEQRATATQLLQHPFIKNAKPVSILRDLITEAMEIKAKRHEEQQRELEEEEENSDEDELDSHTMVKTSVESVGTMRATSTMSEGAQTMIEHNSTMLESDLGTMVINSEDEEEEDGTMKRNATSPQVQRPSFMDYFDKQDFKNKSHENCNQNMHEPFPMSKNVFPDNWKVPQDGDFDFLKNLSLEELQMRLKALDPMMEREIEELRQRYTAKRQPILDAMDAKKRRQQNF

Structure (SMILES): C=CC(=O)Nc1cc(Nc2cc(-c3cccc(NC(=O)c4ccc(C(C)(C)C)cc4)c3C)cn(C)c2=O)ccc1C(=O)N1CCOCC1
- Cmax [1]: 32.8 ng/mL
- Activity [2]: 79%
- Activity [3]: 100%
- Activity [4]: 92%
- Activity [5]: 89%
- Activity [6]: 87%
- Activity [7]: 86%
- Activity [8]: 100%
- Activity [9]: 100%
- Activity [10]: 100%
- Activity [11]: 92%
- Activity [12]: 70%
- Activity [13]: 100%
- Activity [14]: 91%
- Activity [15]: 74%
- Activity [16]: 100%
- Activity [17]: 87%
- Activity [18]: 88%
- Activity [19]: 100%
- Activity [20]: 81%
- Activity [21]: 92%
- Activity [22]: 100%
- Activity [23]: 82%
- Activity [24]: 97%
- Activity [25]: 92%
